The results in this text go back to patent US12122761B2, “2-azaspiro[3.4]octane derivatives as M4 agonists” (NOVARTIS AG, priority 2019, dated 2024).

Experiment [1] concerns the target T1, human cloned CHRM4 receptor (M4_CHO cells) (Homo sapiens, UniProt P08173).
T1 construct: expressed in transfected cells; host or cells: CHO-K1
T1 sequence (P08173 1-479): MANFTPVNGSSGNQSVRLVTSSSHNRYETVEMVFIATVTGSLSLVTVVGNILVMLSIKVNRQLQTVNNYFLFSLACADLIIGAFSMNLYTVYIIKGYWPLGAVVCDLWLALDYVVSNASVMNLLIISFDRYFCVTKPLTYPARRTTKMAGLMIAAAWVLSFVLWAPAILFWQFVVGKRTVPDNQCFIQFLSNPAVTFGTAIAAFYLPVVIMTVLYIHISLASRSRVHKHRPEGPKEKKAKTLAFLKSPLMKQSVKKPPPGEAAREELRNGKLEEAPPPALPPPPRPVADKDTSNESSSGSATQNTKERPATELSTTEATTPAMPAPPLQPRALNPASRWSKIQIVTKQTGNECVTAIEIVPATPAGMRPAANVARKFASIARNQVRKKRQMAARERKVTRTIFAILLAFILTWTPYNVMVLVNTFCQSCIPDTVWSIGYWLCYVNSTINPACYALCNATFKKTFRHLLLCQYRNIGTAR
The experiment is described as follows: CHRM4 Ca++ Flux Assay (agonist mode, FDSS 7000EX). In kind it is cell-based. The conditions noted are these: for Emax: Percent Activity, read-out: M4 FDSS PA; for EC50: geometric mean if tested more than once, read-out: M4 FDSS EC50. The gist of the method: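 Agonist-mode response was expressed as percent of the Carbachol EC100 and fitted with four-parameter nonlinear regression over an 11-point triplicate dose series. Intracellular Ca++ was tracked for 3 min by fluorescent dye in CHO-K1 cells stably expressing human CHRM4. Cells were preincubated 60 min with 20 μM ATP in buffer containing 2.5 mM probenecid.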

Experiment [2] addresses T2, Cloned human M1 receptor (CHRM1) stably expressed in HEK293 cells (Homo sapiens, UniProt P11229).
T2 construct: expressed in transfected cells; host or cells: HEK293
T2 sequence (P11229 1-460): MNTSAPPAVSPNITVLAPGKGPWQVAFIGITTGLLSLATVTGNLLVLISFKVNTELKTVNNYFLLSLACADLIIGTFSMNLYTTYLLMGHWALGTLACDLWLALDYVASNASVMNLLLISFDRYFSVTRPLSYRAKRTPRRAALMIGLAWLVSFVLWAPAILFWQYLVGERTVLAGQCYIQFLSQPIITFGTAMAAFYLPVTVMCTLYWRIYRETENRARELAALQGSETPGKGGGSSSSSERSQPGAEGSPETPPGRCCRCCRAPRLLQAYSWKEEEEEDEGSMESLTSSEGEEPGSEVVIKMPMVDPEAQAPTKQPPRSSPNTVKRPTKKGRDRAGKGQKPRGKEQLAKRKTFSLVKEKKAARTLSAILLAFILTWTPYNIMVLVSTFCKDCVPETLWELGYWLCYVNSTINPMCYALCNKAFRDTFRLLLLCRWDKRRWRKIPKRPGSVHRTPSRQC
In words: CHRM1 Ca++ Flux Assay (agonist mode, FDSS 7000EX). It counts as cell-based. The settings on record: for Emax: HEK293, Percent Activity, read-out: M1 FDSS PA; for EC50: geometric mean if tested more than once. The gist of the method:
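Compounds tested as agonists at 11 concentrations in triplicate, with calcium traces captured over 3 minutes. Cells were HEK293 with stable human CHRM1 expression, plated overnight at 25K/well and loaded with calcium dye. Responses normalized to carbachol EC100 and fitted by four-parameter nonlinear regression.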

One may read the EC50 as the midpoint of the concentration-response curve. For the compound `c1ccc(C2CCN([C@@H]3CCC4(C3)CN(c3nnco3)C4)CC2)c(CC2CCOCC2)c1` [Example 2L, (R)-2-(6-(4-(2-((tetrahydro-2H-pyran-4-yl)methyl)phenyl)piperidin-1-yl)-2-azaspiro[3.4]octan-2-yl)-1,3,4-oxadiazole], the Emax in experiment [1] turned out to be 77%; in experiment [2], 69%. Besides, the EC50 in experiment [1] is 11 nM; in experiment [2], 540 nM.
With `c1ccc(C2CCN([C@@H]3CCC4(C3)CN(c3nnco3)C4)CC2)c(-c2ncco2)c1` [Example 2M, (R)-2-(6-(4-(2-(oxazol-2-yl)phenyl)piperidin-1-yl)-2-azaspiro[3.4]octan-2-yl)-1,3,4-oxadiazole], in experiment [1], the Emax was found to be 82% and the EC50 turned out to be 6 nM. For the same compound, in experiment [2], the Emax amounted to 99% and a half-maximal response (EC50) required 93 nM.
Regarding `c1ccc(C2CCN([C@@H]3CCC4(C3)CN(c3nncs3)C4)CC2)c(OC2COC2)c1` [Example 3A, (R)-2-(6-(4-(2-(oxetan-3-yloxy)phenyl)piperidin-1-yl)-2-azaspiro[3.4]octan-2-yl)-1,3,4-thiadiazole], in experiment [1], the Emax was 88% and the EC50 was less than 0.4 nM. In addition, in experiment [2], the Emax amounted to 92% and the response was half-maximal at 8 nM (EC50).
For `c1ccc(C2CCN([C@@H]3CCC4(C3)CN(c3nncs3)C4)CC2)c(OC[C@H]2COCCO2)c1` [Example 3B, 2-((R)-6-(4-(2-(((R)-1,4-dioxan-2-yl)methoxy)phenyl)piperidin-1-yl)-2-azaspiro[3.4]octan-2-yl)-1,3,4-thiadiazole] the same measures were 70%, 1 nM, 83% and 51 nM.
The matching figures for `c1ccc(C2CCN([C@@H]3CCC4(C3)CN(c3nncs3)C4)CC2)c(OC[C@@H]2COCCO2)c1` [Example 3C, 2-((R)-6-(4-(2-(((S)-1,4-dioxan-2-yl)methoxy)phenyl)piperidin-1-yl)-2-azaspiro[3.4]octan-2-yl)-1,3,4-thiadiazole]: 66%, 2 nM, 88% and 41 nM.
Regarding `COc1ccccc1C1CCN([C@@H]2CCC3(C2)CN(c2nncs2)C3)CC1` [Example 3D, (R)-2-(6-(4-(2-methoxyphenyl)piperidin-1-yl)-2-azaspiro[3.4]octan-2-yl)-1,3,4-thiadiazole], in experiment [1], the Emax was 71% and the EC50 stood at 2 nM. In experiment [2], the Emax was 78% and it took 42 nM to reach a half-maximal effect (EC50).
Regarding `Fc1cccc(C2CCN([C@@H]3CCC4(C3)CN(c3nncs3)C4)CC2)c1OC1COC1` [Example 3E, (R)-2-(6-(4-(3-fluoro-2-(oxetan-3-yloxy)phenyl)piperidin-1-yl)-2-azaspiro[3.4]octan-2-yl)-1,3,4-thiadiazole], the Emax in experiment [1] and in experiment [2] was 87% each time. Further, the EC50 in experiment [1] was 3 nM; in experiment [2] it was 54 nM.
Turning to `COCCOc1ccccc1C1CCN([C@@H]2CCC3(C2)CN(c2nncs2)C3)CC1` [Example 3F, (R)-2-(6-(4-(2-(2-methoxyethoxy)phenyl)piperidin-1-yl)-2-azaspiro[3.4]octan-2-yl)-1,3,4-thiadiazole], the Emax is 60% in experiment [1] and 68% in experiment [2]. In addition, the EC50 in experiment [1] stood at 6 nM; in experiment [2], 40 nM.
As to `CC(C)(O)COc1ccccc1C1CCN([C@@H]2CCC3(C2)CN(c2nncs2)C3)CC1` [Example 3G, (R)-1-(2-(1-(2-(1,3,4-thiadiazol-2-yl)-2-azaspiro[3.4]octan-6-yl)piperidin-4-yl)phenoxy)-2-methylpropan-2-ol], in experiment [1], the Emax amounted to 57% and the EC50 came out at 7 nM. Moreover, in experiment [2], the Emax stood at 66% and a half-maximal response (EC50) required 135 nM.
On to `CC(C)(O)CCOc1ccccc1C1CCN([C@@H]2CCC3(C2)CN(c2nncs2)C3)CC1` [Example 3H, (R)-4-(2-(1-(2-(1,3,4-thiadiazol-2-yl)-2-azaspiro[3.4]octan-6-yl)piperidin-4-yl)phenoxy)-2-methylbutan-2-ol], for which, in experiment [1], the Emax worked out at 48% and the EC50 turned out to be 8 nM. In experiment [2], the Emax was 84% and a half-maximal effect (EC50) was put at 20 nM.
`COc1ccccc1C1CCN([C@@H]2CCC3(C2)CN(c2ccns2)C3)CC1` [Example 3I, (R)-5-(6-(4-(2-methoxyphenyl)piperidin-1-yl)-2-azaspiro[3.4]octan-2-yl)isothiazole]: the Emax in experiment [1] and in experiment [2] was 70% in each case. Besides, the EC50 was 1 nM in experiment [1] and 54 nM in experiment [2].
On to `COCCOc1ccccc1C1CCN([C@@H]2CCC3(C2)CN(c2ncns2)C3)CC1` [Example 3J, (R)-5-(6-(4-(2-(2-methoxyethoxy)phenyl)piperidin-1-yl)-2-azaspiro[3.4]octan-2-yl)-1,2,4-thiadiazole], for which the Emax in experiment [1] stood at 57%; in experiment [2] it was 58%. For the same compound, the EC50 was found to be 4 nM in experiment [1] and 85 nM in experiment [2].
Take `CC(C)(O)COc1ccccc1C1CCN([C@@H]2CCC3(C2)CN(c2ncns2)C3)CC1` [Example 3K, (R)-1-(2-(1-(2-(1,2,4-thiadiazol-5-yl)-2-azaspiro[3.4]octan-6-yl)piperidin-4-yl)phenoxy)-2-methylpropan-2-ol]: the results for the Emax in experiment [1] and in experiment [2] were 68% and 57%, respectively. For the same compound, the EC50 in experiment [1] amounted to 5 nM; in experiment [2], 186 nM.
With `CC(C)(O)CCOc1ccccc1C1CCN([C@@H]2CCC3(C2)CN(c2ncns2)C3)CC1` [Example 3L, (R)-4-(2-(1-(2-(1,2,4-thiadiazol-5-yl)-2-azaspiro[3.4]octan-6-yl)piperidin-4-yl)phenoxy)-2-methylbutan-2-ol], the Emax in experiment [1] stood at 34%; in experiment [2], 67%. The EC50 in experiment [1] stood at 19 nM; in experiment [2] it was 62 nM.
Turning to `COc1ccccc1C1CCN([C@@H]2CCC3(C2)CN(c2nc(C)ns2)C3)CC1` [Example 3M, (R)-5-(6-(4-(2-methoxyphenyl)piperidin-1-yl)-2-azaspiro[3.4]octan-2-yl)-3-methyl-1,2,4-thiadiazole], in experiment [1], the Emax is 30% and the EC50 was 18 nM. Also, in experiment [2], the Emax amounted to 0% and the EC50 was more than 25000 nM.
Consider `Fc1cncc(N2CC3(CC[C@@H](N4CCC(c5ccccc5C5CCOCC5)CC4)C3)C2)c1` [Example 5AA, (R)-2-(5-fluoropyridin-3-yl)-6-(4-(2-(tetrahydro-2H-pyran-4-yl)phenyl)piperidin-1-yl)-2-azaspiro[3.4]octane], for which, in experiment [1], the Emax turned out to be 83% and the EC50 stood at 10 nM. In addition, in experiment [2], the Emax is 61% and the EC50 is 102 nM.
The matching figures for `c1ccc(C2CCN([C@@H]3CCC4(C3)CN(c3cncnc3)C4)CC2)c(C2CCOCC2)c1` [Example 5BB, (R)-2-(pyrimidin-5-yl)-6-(4-(2-(tetrahydro-2H-pyran-4-yl)phenyl)piperidin-1-yl)-2-azaspiro[3.4]octane]: 80%, 17 nM, 72% and 201 nM.
On to `Fc1ccc(N2CC3(CC[C@@H](N4CCC(c5ccccc5C5CCOCC5)CC4)C3)C2)cn1` [Example 5CC, (R)-2-(6-fluoropyridin-3-yl)-6-(4-(2-(tetrahydro-2H-pyran-4-yl)phenyl)piperidin-1-yl)-2-azaspiro[3.4]octane], for which, in experiment [1], the Emax is 84% and the EC50 stood at 22 nM. In addition, in experiment [2], the Emax was 36% and the EC50 is 335 nM.
Consider `COc1ccccc1C1CCN([C@@H]2CCC3(C2)CN(c2cnc(C)cn2)C3)CC1` [Example 5DD, (R)-6-(4-(2-methoxyphenyl)piperidin-1-yl)-2-(5-methylpyrazin-2-yl)-2-azaspiro[3.4]octane], for which, in experiment [1], the Emax stood at 26% and the EC50 stood at 82 nM. Also, in experiment [2], the Emax turned out to be 0% and the EC50 stood at 1260 nM.
